Laboratory results from ChEMBL document CHEMBL1133867, “Design, synthesis, and SAR of heterocycle-containing antagonists of the human CCR5 receptor for the treatment of HIV-1 infection” (Bioorg Med Chem Lett, 2001).
Blank lines part the entries; values can stand above or below the compound they belong to.

Experiments:
[1] = molecular target: T1, C-C chemokine receptor type 4 (Homo sapiens, UniProt P51679); assay: Compound was evaluated for its inhibitory activity against C-C chemokine receptor type 4
T1 sequence (P51679 whole entry): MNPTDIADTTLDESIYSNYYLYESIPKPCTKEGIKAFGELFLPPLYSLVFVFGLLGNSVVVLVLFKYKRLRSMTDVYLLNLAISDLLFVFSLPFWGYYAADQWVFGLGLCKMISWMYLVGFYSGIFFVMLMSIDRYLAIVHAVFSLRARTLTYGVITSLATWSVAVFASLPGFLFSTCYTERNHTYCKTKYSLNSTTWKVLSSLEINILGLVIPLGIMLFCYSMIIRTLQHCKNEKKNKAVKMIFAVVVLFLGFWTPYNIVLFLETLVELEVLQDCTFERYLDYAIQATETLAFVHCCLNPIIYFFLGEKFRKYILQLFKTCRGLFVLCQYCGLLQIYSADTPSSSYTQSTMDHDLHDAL

[2] = molecular target: T2, C-C chemokine receptor type 3 (Homo sapiens, UniProt P51677); assay: Compound was evaluated for its inhibitory activity against C-C chemokine receptor type 3
T2 sequence (P51677 whole entry): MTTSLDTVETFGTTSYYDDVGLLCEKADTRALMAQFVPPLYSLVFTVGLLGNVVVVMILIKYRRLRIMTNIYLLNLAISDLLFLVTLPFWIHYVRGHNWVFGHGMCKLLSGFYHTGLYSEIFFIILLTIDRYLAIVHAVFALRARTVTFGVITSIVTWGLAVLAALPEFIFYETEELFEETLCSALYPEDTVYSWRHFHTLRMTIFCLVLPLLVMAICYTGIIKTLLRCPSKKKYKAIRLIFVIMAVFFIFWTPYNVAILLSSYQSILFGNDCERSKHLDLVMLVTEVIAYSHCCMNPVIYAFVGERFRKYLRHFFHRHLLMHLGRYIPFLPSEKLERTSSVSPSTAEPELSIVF

[3] = molecular target: C-X-C chemokine receptor type 4 (Homo sapiens, UniProt P61073); assay: Compound was evaluated for its inhibitory activity against C-X-C chemokine receptor type 4
[4] = molecular target: C-C chemokine receptor type 2 (Homo sapiens, UniProt P41597); assay: Compound was evaluated for its inhibitory activity against C-C chemokine receptor type 2
[5] = molecular target: T3, C-C chemokine receptor type 5 (Homo sapiens, UniProt P51681); assay: Binding affinity against C-C chemokine receptor type 5 stably expressed in Chinese hamster ovary (CHO) cells using [125I]-MIP-1 alpha as the radioligand; assay type: cell-based
[6] = molecular target: T4, C-C chemokine receptor type 1 (Homo sapiens, UniProt P32246); assay: Compound was evaluated for inhibitory activity against C-C chemokine receptor type 1
T4 sequence (P32246 whole entry): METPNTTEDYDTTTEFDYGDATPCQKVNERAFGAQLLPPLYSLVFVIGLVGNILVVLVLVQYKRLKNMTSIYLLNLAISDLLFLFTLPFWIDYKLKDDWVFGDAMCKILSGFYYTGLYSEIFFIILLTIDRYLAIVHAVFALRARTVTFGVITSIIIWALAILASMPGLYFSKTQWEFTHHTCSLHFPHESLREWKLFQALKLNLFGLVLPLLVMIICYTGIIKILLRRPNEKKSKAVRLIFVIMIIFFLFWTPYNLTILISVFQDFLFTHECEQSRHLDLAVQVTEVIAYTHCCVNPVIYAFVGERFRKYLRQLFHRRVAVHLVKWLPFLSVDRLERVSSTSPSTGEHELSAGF

HeLa = assay: Antiviral activity against HeLa Magi cells expressing both CXCR4 and CCR5 in a 48 hr single cycle HIV (BAL) infection assay; assay type: functional; conditions: Homo sapiens
[7] = Clearance in rat.; assay type: ADME, organism-based; conditions: in vivo
[8] = Oral bioavailability in rat; assay type: ADME, organism-based; conditions: in vivo
[9] = molecular target: T3, C-C chemokine receptor type 5; assay: Binding affinity against human CCR5 receptor stably expressed in Chinese hamster ovary (CHO) cells using [125I]-MIP-1 alpha as the radioligand; assay type: cell-based

C-C chemokine receptor type 2, sequence (P41597 whole entry): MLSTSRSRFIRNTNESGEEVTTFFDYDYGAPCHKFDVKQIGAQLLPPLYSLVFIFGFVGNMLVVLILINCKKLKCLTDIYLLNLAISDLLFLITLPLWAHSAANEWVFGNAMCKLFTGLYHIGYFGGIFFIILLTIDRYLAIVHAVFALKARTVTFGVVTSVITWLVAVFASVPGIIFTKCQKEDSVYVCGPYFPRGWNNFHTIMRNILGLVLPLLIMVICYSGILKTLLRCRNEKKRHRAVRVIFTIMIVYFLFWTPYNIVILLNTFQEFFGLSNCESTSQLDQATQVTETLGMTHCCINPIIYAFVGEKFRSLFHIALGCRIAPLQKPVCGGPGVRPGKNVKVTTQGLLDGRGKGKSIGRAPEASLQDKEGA
T3 sequence (P51681 whole entry): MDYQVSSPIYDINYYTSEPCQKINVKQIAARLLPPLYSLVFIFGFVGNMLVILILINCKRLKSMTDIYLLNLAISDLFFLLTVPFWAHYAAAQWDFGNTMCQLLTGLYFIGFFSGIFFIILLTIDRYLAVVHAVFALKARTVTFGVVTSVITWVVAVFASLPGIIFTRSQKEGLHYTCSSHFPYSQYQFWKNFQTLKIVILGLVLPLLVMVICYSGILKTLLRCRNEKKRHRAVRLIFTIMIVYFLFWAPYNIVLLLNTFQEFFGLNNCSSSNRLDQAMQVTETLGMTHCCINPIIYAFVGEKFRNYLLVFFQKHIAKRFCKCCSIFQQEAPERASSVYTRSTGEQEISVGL
C-X-C chemokine receptor type 4, sequence (P61073 whole entry): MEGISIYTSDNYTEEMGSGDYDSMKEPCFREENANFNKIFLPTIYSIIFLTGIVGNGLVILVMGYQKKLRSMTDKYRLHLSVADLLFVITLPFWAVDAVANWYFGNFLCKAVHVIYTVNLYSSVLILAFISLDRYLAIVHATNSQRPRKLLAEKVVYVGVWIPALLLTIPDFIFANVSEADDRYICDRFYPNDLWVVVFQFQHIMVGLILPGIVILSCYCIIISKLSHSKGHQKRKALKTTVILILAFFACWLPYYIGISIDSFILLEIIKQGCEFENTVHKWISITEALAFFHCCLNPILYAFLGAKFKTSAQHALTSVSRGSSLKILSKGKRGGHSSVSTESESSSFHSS

IC50 [1]: > 1000 nM | IC50 [2]: > 1000 nM | IC50 [3]: > 1000 nM | IC50 [4]: > 1000 nM | IC50 [5]: 10 nM | IC50 [6]: > 1000 nM | IC90 (HeLa): 1000 nM
Compound: C=CCN(C(=O)OCc1ccc([N+](=O)[O-])cc1)C1CCN(CCC(C)(Cn2cnc3ccccc32)c2ccccc2)CC1 (stereo not drawn)

IC50 [5]: 15 nM
Compound: C=CCN(C(=O)OCc1ccc([N+](=O)[O-])cc1)C1CCN(CCC(Cn2cnc(CC#N)c2)c2ccccc2)CC1 (stereo not drawn)

IC50 [5]: 55 nM
Compound: C=CCN(C(=O)OCc1ccccc1)C1CCN(CCC(C)(c2ccccc2)C2Nc3ccccc3S(=O)(=O)N2)CC1 (single isomer, unassigned)

IC50 [5]: 15 nM
Compound: C=CCN(C(=O)OCc1ccc([N+](=O)[O-])cc1)C1CCN(CCC(Cn2ncc3ccccc32)c2ccccc2)CC1 (stereo not drawn)

Compound: C=CCN(C(=O)OCc1ccc([N+](=O)[O-])cc1)C1CCN(CCC(Cn2cnc([N+](=O)[O-])c2)c2ccccc2)CC1 (stereo not drawn)
IC50 [5]: 15 nM

IC50 [5]: 10 nM
Compound: C=CCN(C(=O)OCc1ccc([N+](=O)[O-])cc1)C1CCN(CCC(C)(c2ccccc2)C2c3ccccc3C(=O)N2CC)CC1 (single isomer, unassigned; form 2)

clearance [7]: 84 mL/min/kg | bioavailability [8]: 1%
Compound: C=CCN(C(=O)OCc1ccccc1)C1CCN(CCC(C)(CN2C(=O)N[C@H](Cc3c[nH]c4ccccc34)C2=O)c2ccccc2)CC1 (stereo partly drawn)

IC50 [5]: 18 nM
Compound: C=CCN(C(=O)OCc1ccc([N+](=O)[O-])cc1)C1CCN(CCC(C)(c2ccccc2)C2c3ccccc3C(=O)N2CC)CC1 (single isomer, unassigned; form 1)

IC50 [9]: 35 nM
Compound: CN(C[C@@H](CCN1CCC2(CC1)C[S+]([O-])c1ccccc12)c1cccc(Cl)c1)S(=O)(=O)c1ccccc1 (stereo partly drawn)

IC50 [5]: 16 nM
Compound: C=CCN(C(=O)OCc1ccc([N+](=O)[O-])cc1)C1CCN(CCC(Cn2cnc(Cl)c2Cl)c2ccccc2)CC1 (stereo not drawn)

IC50 [1]: > 1000 nM | IC50 [2]: > 1000 nM | IC50 [3]: > 1000 nM | IC50 [4]: > 1000 nM | IC50 [5]: 48 nM | IC50 [6]: > 1000 nM | IC90 (HeLa): 3000 nM
Compound: C=CCN(C(=O)OCc1ccc([N+](=O)[O-])cc1)C1CCN(CCC(Cn2c(CC)nc3ccccc32)c2ccccc2)CC1 (stereo not drawn)

IC50 [1]: > 1000 nM | IC50 [2]: > 1000 nM | IC50 [3]: > 1000 nM | IC50 [4]: > 1000 nM | IC50 [5]: 246 nM | IC50 [6]: > 1000 nM
Compound: C=CCN(C(=O)OCc1ccccc1)C1CCN(CCC(Cn2c(CC)nc3ccccc32)c2ccccc2)CC1 (stereo not drawn)

IC50 [5]: 335 nM
Compound: C=CCN(C(=O)OCc1ccc([N+](=O)[O-])cc1)C1CCN(CCC(Cn2nnnc2-c2ccccc2)c2ccccc2)CC1 (stereo not drawn)

IC50 [5]: 28 nM
Compound: C=CCN(C(=O)OCc1ccc([N+](=O)[O-])cc1)C1CCN(CCC(Cn2cncn2)c2ccccc2)CC1 (stereo not drawn)

IC50 [1]: > 1000 nM | IC50 [2]: > 1000 nM | IC50 [3]: > 1000 nM | IC50 [4]: > 1000 nM | IC50 [5]: 112 nM | IC50 [6]: > 1000 nM
Compound: C=CCN(C(=O)OCc1ccccc1)C1CCN(CCC(C)(Cn2cnc3ccccc32)c2ccccc2)CC1 (stereo not drawn)

IC50 [5]: 23 nM
Compound: C=CCN(C(=O)OCc1ccc([N+](=O)[O-])cc1)C1CCN(CCC(Cn2cnc(-c3ccccc3)c2)c2ccccc2)CC1 (stereo not drawn)

IC50 [1]: > 1000 nM | IC50 [2]: > 1000 nM | IC50 [3]: > 1000 nM | IC50 [4]: > 1000 nM | IC50 [5]: 25 nM | IC50 [6]: > 1000 nM | IC90 (HeLa): > 3000 nM
Compound: C=CCN(C(=O)OCc1ccccc1)C1CCN(CCC(Cn2cnc3ccccc32)c2ccccc2)CC1 (stereo not drawn)

IC50 [5]: 111 nM
Compound: C=CCN(C(=O)OCc1ccc([N+](=O)[O-])cc1)C1CCN(CCC(Cn2nnc(-c3ccccc3)n2)c2ccccc2)CC1 (stereo not drawn)

IC50 [5]: 27 nM
Compound: C=CCN(C(=O)OCc1ccc([N+](=O)[O-])cc1)C1CCN(CCC(Cn2cc3ccccc3n2)c2ccccc2)CC1 (stereo not drawn)

IC50 [5]: 18 nM
Compound: C=CCN(C(=O)OCc1ccccc1)C1CCN(CCC(C)(c2ccccc2)C2Nc3ccccc3S(=O)(=O)N2)CC1 (stereo in doubt)

clearance [7]: 49 mL/min/kg | IC50 [1]: > 1000 nM | IC50 [2]: > 1000 nM | IC50 [3]: > 1000 nM | IC50 [4]: > 1000 nM | bioavailability [8]: 14% | IC50 [5]: 4 nM | IC50 [6]: > 1000 nM | IC90 (HeLa): 1000 nM
Compound: C=CCN(C(=O)OCc1ccc([N+](=O)[O-])cc1)C1CCN(CCC(Cn2cnc3ccccc32)c2ccccc2)CC1 (stereo not drawn)
